# Experimental data published in ChEMBL document CHEMBL3576789, “Origins of the Quinolone Class of Antibacterials: An Expanded "Discovery Story"” (2015).
# How the values were obtained:
# Staphylococcus aureus [1] = test: Antimicrobial activity against Staphylococcus aureus 209p JC1; type: functional
# Klebsiella pneumoniae [2] = test: Antimicrobial activity against Klebsiella pneumoniae 602; type: functional
# Proteus mirabilis = test: Antimicrobial activity against Proteus mirabilis GN2425; type: functional
# Pseudomonas aeruginosa [3] = test: Antimicrobial activity against Pseudomonas aeruginosa TU408; type: functional
# Salmonella typhi = test: Antimicrobial activity against Salmonella typhi T58; type: functional, Salmonella enterica subsp. enterica serovar Typhi; details: Salmonella enterica
# Escherichia coli [4] = test: Antimicrobial activity against Escherichia coli NIHJ; type: functional
# Proteus vulgaris = test: Antimicrobial activity against Proteus vulgaris HX19; type: functional
# Klebsiella pneumoniae [5] = test: Antimicrobial activity against Klebsiella pneumoniae PCI602; type: functional
# Escherichia coli [6] = test: Antimicrobial activity against Escherichia coli NIHJ JC2; type: functional
# Staphylococcus aureus [7] = test: Antimicrobial activity against Staphylococcus aureus 209P; type: functional
# Pseudomonas aeruginosa [8] = test: Antimicrobial activity against Pseudomonas aeruginosa 104; type: functional
SMILES,MIC (Staphylococcus aureus [1]),MIC (Klebsiella pneumoniae [2]),MIC (Proteus mirabilis),MIC (Pseudomonas aeruginosa [3]),MIC (Salmonella typhi),MIC (Escherichia coli [4]),MIC (Proteus vulgaris),MIC (Klebsiella pneumoniae [5]),MIC (Escherichia coli [6]),MIC (Staphylococcus aureus [7]),MIC (Pseudomonas aeruginosa [8])
CCn1cc(C(=O)O)c(=O)c2ccc(C)cc21,> 50 µg/mL,25 µg/mL,12.5 µg/mL,> 50 µg/mL,12.5 µg/mL,6.25 µg/mL,12.5 µg/mL,6.25 µg/mL,6.25 µg/mL,200 µg/mL,> 200 µg/mL
CCn1cc(C(=O)O)c(=O)c2ccc(Cl)cc21,,25 µg/mL,12.5 µg/mL,,,25 µg/mL,25 µg/mL,,,50 µg/mL,200 µg/mL
CCn1cc(C(=O)O)c(=O)c2ccc(C)nc21 [NALIDIXIC ACID],> 50 µg/mL,6.25 µg/mL,12.5 µg/mL,> 50 µg/mL,6.25 µg/mL,3.13 µg/mL,1.56 µg/mL,6.25 µg/mL,6.25 µg/mL,100 µg/mL,200 µg/mL
